Among the test systems are NCI/ADR-RES; U-251; HCT-15; NCI-H460; SK-MEL-28; SW-620; UO-31; A549; M14; IGROV-1; HCT-116; MOLT-4; OVCAR-5; MDA-N; CCRF-CEM; OVCAR-3; EKVX; PC-3; COLO 205; Malme-3M.
What all share (test): inhibition of tumour cell growth, NCI panel, 48 h

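A five-concentration, 48-hour dose response in 96-well plates underlies each endpoint, interpolated linearly between surrounding concentrations. Here, GI50 denotes the concentration required for 50% inhibition of growth.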 Calls of active or inactive are those of the source. Rule as the data show it: active = GI50 up to about 1.1 µM and inactive = higher.

In the case of `Cc1cc(C)c(-n2c(-c3ccc(Br)cc3)cs/c2=N\N=C2C=C(C(C)(C)C)C(=O)C(C(C)(C)C)=C2)c(C)c1`, the GI50 in the test on NCI/ADR-RES is > 100 µM (inactive); with U-251, 31.2 µM (inactive); in the test on HCT-15, above 100 µM; in the test with NCI-H460 it was > 100 µM (inactive); in the test on SK-MEL-28 it was > 100 µM (inactive); with SW-620, > 100 µM (inactive). Further, the GI50 in the test on UO-31 was > 100 µM (inactive); with A549, > 100 µM (inactive); in the test with M14, > 100 µM (inactive); in the test with IGROV-1, > 63.7 µM (inactive); in the test on HCT-116 it was > 76 µM (inactive); in the test with MOLT-4, > 100 µM (inactive). The GI50 in the test on OVCAR-5, in the test with MDA-N, in the test with CCRF-CEM, in the test with OVCAR-3, with EKVX and in the test with PC-3 was > 100 µM (inactive) in each case. Moreover, the GI50 with COLO 205 and with Malme-3M was > 100 µM (inactive) throughout.
Regarding `CCO/C(Cc1ccc(Cl)cc1)=N/NC(N)=S`, the GI50 with NCI/ADR-RES is > 100 µM (inactive); with U-251, > 100 µM (inactive); in the test on HCT-15, above 100 µM; in the test on NCI-H460, > 100 µM (inactive); with SK-MEL-28 it was > 100 µM (inactive); in the test on SW-620, > 100 µM (inactive). Also, the GI50 with UO-31 was 72.9 µM (inactive); with A549, > 100 µM (inactive); in the test on M14, > 100 µM (inactive); in the test on IGROV-1, > 100 µM (inactive); with HCT-116, > 100 µM (inactive); in the test with MOLT-4, > 100 µM (inactive). The GI50 in the test with OVCAR-5, in the test on MDA-N, in the test on CCRF-CEM, in the test on OVCAR-3, in the test with EKVX and in the test with PC-3 was > 100 µM (inactive) throughout. For the same molecule, the GI50 with COLO 205 and in the test with Malme-3M was > 100 µM (inactive) in each case.
In the case of `C/C(=N\Nc1nc2ccccc2s1)c1cnccn1`, the GI50 with NCI/ADR-RES was 1.74 µM (inactive); in the test with U-251 it was 3.67 µM (inactive); in the test on HCT-15 it was 0.625 µM; with NCI-H460 it was 1.77 µM (inactive); in the test on SK-MEL-28, 9.66 µM (inactive); in the test on SW-620, 0.505 µM (active). For the same molecule, the GI50 with UO-31 was 1.06 µM (active); with A549 it was 3.3 µM (inactive); in the test with M14 it was 0.685 µM (active); with IGROV-1, 0.406 µM (active); in the test with HCT-116, 1.5 µM (inactive); in the test with MOLT-4 it was 0.461 µM (active). The GI50 was 3.33 µM (inactive) in the test with OVCAR-5; 11.4 µM (inactive) in the test on MDA-N; 0.318 µM (active) in the test with CCRF-CEM; 0.49 µM (active) in the test with OVCAR-3; 0.146 µM (active) in the test on EKVX; 2.12 µM (inactive) in the test on PC-3. The GI50 with COLO 205 is 0.344 µM (active); in the test with Malme-3M, 0.505 µM (active).
With `O[C@@H]1C=C[C@]23CCN(Cc4cc5c(cc42)OCO5)[C@@H]3C1`, the GI50 is > 100 µM (inactive) with NCI/ADR-RES; 41.2 µM (inactive) with U-251; above 100 µM with HCT-15; 42.7 µM (inactive) with NCI-H460; > 100 µM (inactive) in the test on SK-MEL-28; 49 µM (inactive) with SW-620. Also, the GI50 is 48.2 µM (inactive) in the test on UO-31; 46.6 µM (inactive) in the test with A549; > 100 µM (inactive) in the test with M14; 44.3 µM (inactive) in the test on IGROV-1; 42.8 µM (inactive) in the test on HCT-116; 61.1 µM (inactive) in the test with MOLT-4. Besides, the GI50 in the test with OVCAR-5 was > 100 µM (inactive); in the test with MDA-N it was 69.3 µM (inactive); in the test with CCRF-CEM, 48.9 µM (inactive); in the test with OVCAR-3 it was > 100 µM (inactive); in the test with EKVX, 87.1 µM (inactive); in the test with PC-3 it was 45.2 µM (inactive). Also, the GI50 is 44.8 µM (inactive) in the test on COLO 205 and > 100 µM (inactive) in the test on Malme-3M.
For the molecule `O=c1[nH]c(=O)n(C2OC(CO)C(O)C2O)c2ccsc12` (stereo not given), the GI50 with NCI/ADR-RES is > 100 µM (inactive); with U-251, > 100 µM (inactive); in the test on HCT-15, above 100 µM; in the test with NCI-H460, > 100 µM (inactive); with SK-MEL-28, > 100 µM (inactive); in the test on SW-620, > 100 µM (inactive). The GI50 in the test on UO-31, in the test with A549, in the test with M14, in the test on IGROV-1, in the test on HCT-116 and with MOLT-4 was > 100 µM (inactive) throughout. Also, the GI50 with OVCAR-5, with MDA-N, in the test with CCRF-CEM, with OVCAR-3, in the test with EKVX and in the test on PC-3 was > 100 µM (inactive) each time. For the same molecule, the GI50 with COLO 205 and in the test on Malme-3M was > 100 µM (inactive) throughout.
With `O=C1/C(=C/c2ccc(O)cc2)CCCC1CN1CCCCC1` (stereo not given), the GI50 was 8.2 µM (inactive) in the test with NCI/ADR-RES; 7.91 µM (inactive) in the test with U-251; 1.32 µM with HCT-15; 14.3 µM (inactive) in the test with NCI-H460; 5.43 µM (inactive) with SK-MEL-28; 1.88 µM (inactive) with SW-620. Also, the GI50 is 2.51 µM (inactive) with UO-31; 17.2 µM (inactive) in the test with A549; 2.94 µM (inactive) in the test with M14; 1.97 µM (inactive) with IGROV-1; 1.79 µM (inactive) in the test on HCT-116; 2.2 µM (inactive) in the test with MOLT-4. Moreover, the GI50 was 16.3 µM (inactive) in the test with OVCAR-5; 3.47 µM (inactive) in the test with MDA-N; 2.57 µM (inactive) in the test on CCRF-CEM; 4.41 µM (inactive) in the test with OVCAR-3; 3.25 µM (inactive) in the test on EKVX; 5.38 µM (inactive) in the test with PC-3. Besides, the GI50 in the test with COLO 205 was 2.16 µM (inactive); with Malme-3M, 1.88 µM (inactive).
As to `COc1cc2c(cc1OCc1ccccc1)NC(=O)[C@@H]1C[C@@H](O)CN1C2=O`, the GI50 with NCI/ADR-RES is > 100 µM (inactive); in the test on U-251 it was > 100 µM (inactive); in the test on HCT-15 it was above 100 µM; with NCI-H460 it was > 100 µM (inactive); in the test with SK-MEL-28 it was > 100 µM (inactive); in the test with SW-620 it was > 100 µM (inactive). In addition, the GI50 with UO-31, in the test with A549, with M14, in the test with IGROV-1, with HCT-116 and in the test with MOLT-4 was > 100 µM (inactive) each time. Moreover, the GI50 with OVCAR-5, in the test with MDA-N, with CCRF-CEM, in the test on OVCAR-3, in the test with EKVX and in the test on PC-3 was > 100 µM (inactive) in each case. Moreover, the GI50 with COLO 205 and with Malme-3M was > 100 µM (inactive) throughout.
With `COc1cc(NCCC2CCCCN2)c2ncccc2c1` (stereo not given), the GI50 in the test with NCI/ADR-RES is > 100 µM (inactive); in the test on U-251 it was 56.4 µM (inactive); in the test on HCT-15, above 74.3 µM; with NCI-H460 it was 39.7 µM (inactive); in the test on SK-MEL-28 it was 29.2 µM (inactive); with SW-620 it was > 70.6 µM (inactive). Moreover, the GI50 in the test on UO-31 was 57.1 µM (inactive); with A549, > 96.6 µM (inactive); in the test with M14, 21.5 µM (inactive); with IGROV-1 it was 8.87 µM (inactive); in the test on HCT-116, 36 µM (inactive); with MOLT-4, 7.11 µM (inactive). Further, the GI50 in the test with OVCAR-5 is > 100 µM (inactive); in the test with MDA-N it was 36.3 µM (inactive); with CCRF-CEM, 25.1 µM (inactive); in the test with OVCAR-3, 4.63 µM (inactive); in the test on EKVX, > 100 µM (inactive); in the test on PC-3, 74.5 µM (inactive). For the same molecule, the GI50 with COLO 205 was 13.5 µM (inactive); in the test on Malme-3M it was 26.9 µM (inactive).
For `COc1ccc(S(=O)(=O)O)cc1-n1nc(C(=O)Nc2ccccc2)n[n+]1-c1cc(S(=O)(=O)[O-])ccc1OC`, the GI50 was > 100 µM (inactive) in the test on NCI/ADR-RES; > 100 µM (inactive) in the test on U-251; above 100 µM in the test on HCT-15; > 100 µM (inactive) with NCI-H460; > 100 µM (inactive) with SK-MEL-28; > 100 µM (inactive) in the test on SW-620. Moreover, the GI50 in the test on UO-31, in the test with A549, with M14, in the test with IGROV-1, with HCT-116 and with MOLT-4 was > 100 µM (inactive) each time. Further, the GI50 in the test on OVCAR-5, in the test on MDA-N, in the test on CCRF-CEM, with OVCAR-3, in the test with EKVX and with PC-3 was > 100 µM (inactive) throughout. Also, the GI50 with COLO 205 and with Malme-3M was > 100 µM (inactive) each time.
`CCN(CC)CCNc1ccc2ncn3c4c(OC)ccc(O)c4c(=O)c1c23`: the GI50 in the test with NCI/ADR-RES was 2.54 µM (inactive); in the test with U-251 it was 12.6 µM (inactive); in the test on HCT-15, 3.63 µM; in the test on NCI-H460, 0.764 µM (active); in the test on SK-MEL-28 it was 12.3 µM (inactive); in the test on SW-620, 3.09 µM (inactive). The GI50 with UO-31 was 33.7 µM (inactive); in the test with A549 it was 2.86 µM (inactive); in the test on M14 it was 13.6 µM (inactive); in the test on IGROV-1, 5.56 µM (inactive); in the test with HCT-116, 1.16 µM (inactive); in the test with MOLT-4 it was 0.625 µM (active). The GI50 in the test on OVCAR-5 is 42.4 µM (inactive); in the test with MDA-N, 21.1 µM (inactive); in the test on CCRF-CEM it was 4.12 µM (inactive); with OVCAR-3 it was 31.2 µM (inactive); in the test on EKVX, 46.8 µM (inactive); in the test with PC-3 it was 10.9 µM (inactive). The GI50 is 5.87 µM (inactive) in the test on COLO 205 and 19.4 µM (inactive) in the test with Malme-3M.

The record behind these values is ChEMBL document CHEMBL1201862, “PubChem BioAssay data set” (2004).
